Measured values taken from patent US9340577B2, “HLA binding motifs and peptides and their uses” (priority 1992, dated 2016).
Where two headings read alike, the source gives them in different places. No end group written: not given here.

Legend:
Test in all cases: biochemical
DR4w4 (DRB1*0401) = DR4w4 (DRB1*0401) (Homo sapiens, UniProt P01903+P01911, A100K/A169T/F76Y/I96L/K127E/L162R/M171V/N62H/P40V/Q125Y/R42H/S133A/S149N/S66Y/V115G/V209L/W38E); format: binding
DR7 (DRB1*0701) = DR7 (DRB1*0701) (Homo sapiens, UniProt P01903+P01911, A100R/A102G/A103Q/D57E/D86V/E43K/F76Y/K127E/L162R/M171V/P40G/Q125H/Q99D/R33Q/R42Y/R54Q/S133A/S66F/T210M/V115G/Y107V/Y59L/Y89S); format: binding
DRB1*1501 = DRB1*1501 (Homo sapiens, UniProt P01903+P01911); format: binding
DRB1*0802 = DRB1*0802 (Homo sapiens, UniProt P01903+P01911, A100R/A103L/A169T/F76Y/H45Y/I96F/K41T/L162R/M171V/P40S/Q125H/Q178H/Q39Y/Q99D/R218S/R42G/S66Y/V115G/W38E); format: binding
DRB1*1302 = DRB1*1302 (Homo sapiens, UniProt P01903+P01911, A100E/A169T/K41T/L162R/M171V/P40S/Q125H/Q178H/Q39Y/Q99D/R42S/S66N/T262R/V115G/W38E/Y61H); format: binding
Chain of DRB1*1302 (P01903 26-254 limits assumed, other chains not shown): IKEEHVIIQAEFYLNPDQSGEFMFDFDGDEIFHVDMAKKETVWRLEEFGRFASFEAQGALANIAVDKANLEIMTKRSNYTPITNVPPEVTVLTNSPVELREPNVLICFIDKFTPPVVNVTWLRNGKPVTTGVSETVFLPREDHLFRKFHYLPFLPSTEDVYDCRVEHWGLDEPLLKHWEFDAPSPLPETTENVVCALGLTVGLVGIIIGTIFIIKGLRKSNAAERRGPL

DRB1*1101 = DRB1*1101 (Homo sapiens, UniProt P01903+P01911, A100R/A169T/A87E/I96F/K41T/L162R/M171V/P40S/Q125H/Q178H/Q39Y/Q99D/R42S/S66Y/T262R/V115G/W38E)
Chain of DRB1*1101 (P01903 26-254 limits assumed, other chains not shown): as above

DRB5*0101 = DRB5*0101 (Homo sapiens, UniProt P01903+Q30154)
DRB4*0101 = DRB4*0101 (Homo sapiens, UniProt P01903+P13762, G164S); format: binding
DRB1*0901 = DRB1*0901 (Homo sapiens, UniProt P01903+P01911, A100R/A103E/D57H/D86V/F55Y/F60I/F76Y/I96F/K127E/L162R/M171V/P40D/Q125H/Q99R/R33Q/R42F/S133A/S66N/T210M/V115G/W38K/Y107V/Y59G/Y89S); format: binding
DR1 (DRB1*0101) = DR1 (DRB1*0101) (Homo sapiens, UniProt P01903+P01911, A100R/D57E/F55L/F60I/F76Y/I96L/L162R/M171V/P40L/Q125E/R42F/V115G/Y59C); format: binding
A*0202 = A*0202 (Homo sapiens, UniProt P04439, D140Y/D185E/D98H/E176V/E277Q/G131W/G231S/I119L/I121R/I166T/I218V/L180W/L300P/L318F/N151K/N90K/P208A/P217A/Q67R/Q86G/Q94H/R138H/R169H/T345S); format: binding
A*6802 = A*6802 (Homo sapiens, UniProt P04439, A269V/D140Y/D185E/E176V/E277Q/E87N/F33Y/G231S/I121R/I166T/I218V/L180W/L300P/L318F/N151K/P208A/P217A/Q86R/R138H/R169H/S129P/T345S/V36M); format: binding

Compound | IC50 (DRB1*1501) [nM] | IC50 (DRB1*0802) [nM] | IC50 (DRB1*1302) [nM] | IC50 (DRB1*1101; Binding affinity DRB1 *1101) [nM] | IC50 (DRB5*0101; Binding affinity DRB5 *0101) [nM] | IC50 (DR7 (DRB1*0701)) [nM] | IC50 (DRB4*0101) [nM] | IC50 (DRB1*0901) [nM] | IC50 (DR4w4 (DRB1*0401)) [nM] | other results
702.17 (AYAAAKA; also: non-natural residues (20)) [Peptide 702.17] |  |  |  |  |  |  |  |  |  | IC50 (DR4w4 (DRB1*0401); read-out: DRB1*0401): 250 nM; IC50 (DR7 (DRB1*0701); read-out: DRB1*0701): 8330 nM
730.15 (AAKAAAAAAAAA; also: non-natural residue (10)) [Peptide 730.15] |  |  |  |  |  |  |  |  |  | IC50 (DR4w4 (DRB1*0401); read-out: DRB1*0401): > 889 nM
787.35 (AAIGFFFFKKGIA; also: non-natural residue (43)) [Peptide 787.35] |  |  |  |  |  |  |  |  |  | IC50 (DR4w4 (DRB1*0401); read-out: DRB1*0401): 258 nM
787.39 (AAIGGIFIFKKDA; also: non-natural residue (43)) [Peptide 787.39] |  |  |  |  |  |  |  |  |  | IC50 (DR4w4 (DRB1*0401); read-out: DRB1*0401): 800 nM
839.03 (AAAATKAAAA; also: non-natural residues (14), (35)) [Peptide 839.03] |  |  |  |  |  |  |  |  |  | IC50 (DR4w4 (DRB1*0401); read-out: DRB1*0401): > 500 nM
CC[C@H](C)[C@H](NC(=O)CNC(=O)[C@H](CCCNC(=N)N)NC(=O)[C@H](CCCNC(=N)N)NC(=O)[C@H](Cc1ccc(O)cc1)NC(=O)[C@H](C)NC(=O)[C@H](Cc1ccc(O)cc1)NC(=O)[C@@H](N)CCC(=O)O)C(=O)N[C@@H](C)C(=O)N[C@@H](CCC(=O)O)C(=O)N[C@@H](C)C(=O)N[C@H](C(=O)NCC(=O)N[C@@H](CC(C)C)C(=O)N1CCC[C@H]1C(=O)O)C(C)C [Peptide 68.0100] | > 20000 |  |  |  |  |  |  |  |  | 
CC[C@H](C)[C@H](NC(=O)[C@H](CCC(N)=O)NC(=O)[C@@H](NC(=O)[C@H](CO)NC(=O)[C@H](CC(=O)O)NC(=O)[C@@H]1CCCN1C(=O)[C@@H](NC(=O)[C@H](C)NC(=O)[C@@H](NC(=O)[C@@H](NC(=O)[C@H](CC(N)=O)NC(=O)[C@H](CC(C)C)NC(=O)[C@@H](N)Cc1ccccc1)[C@@H](C)O)C(C)C)[C@@H](C)CC)C(C)C)C(=O)N[C@@H](CC(C)C)C(=O)N[C@H](C(=O)O)C(C)C [Peptide 1601.20] |  | > 20000 | 90 | > 20000 | > 20000 |  |  |  |  | 
CC[C@H](C)[C@H](NC(=O)[C@@H](NC(=O)[C@H](CCSC)NC(=O)[C@H](Cc1ccc(O)cc1)NC(=O)CNC(=O)[C@@H](NC(=O)[C@H](CO)NC(=O)[C@@H](NC(=O)[C@H](CCC(N)=O)NC(=O)[C@@H](NC(=O)[C@H](CO)NC(=O)[C@H](CC(N)=O)NC(=O)[C@@H]1CCCN1C(=O)[C@@H](NC(=O)[C@@H](N)[C@@H](C)O)[C@@H](C)CC)C(C)C)[C@@H](C)CC)C(C)C)[C@@H](C)O)C(=O)O [Peptide 1601.42] | 10 |  |  |  |  | 9 | 16 |  |  | 
CC[C@H](C)[C@H](NC(=O)[C@@H](N)Cc1c[nH]c2ccccc12)C(=O)N[C@H](C(=O)N[C@@H](CCC(N)=O)C(=O)N[C@@H](CS)C(=O)N[C@@H](Cc1ccccc1)C(=O)N[C@@H](CC(C)C)C(=O)N1CCC[C@H]1C(=O)N[C@H](C(=O)N[C@@H](Cc1ccccc1)C(=O)N[C@@H](CC(C)C)C(=O)N[C@@H](C)C(=O)N[C@@H](CCC(N)=O)C(=O)N1CCC[C@H]1C(=O)N1CCC[C@H]1C(=O)N[C@@H](CO)C(=O)NCC(=O)N[C@@H](CCC(N)=O)C(=O)N[C@@H](CCCNC(=N)N)C(=O)N[C@@H](CCCNC(=N)N)C(=O)O)C(C)C)[C@@H](C)O [Peptide F189.02] | 726 |  | 23600 |  |  |  | 688 |  |  | 
CC[C@H](C)[C@H](NC(=O)[C@H](CCCCN)NC(=O)[C@H](CC(N)=O)NC(=O)[C@@H](NC(=O)[C@@H](NC(=O)[C@H](CC(C)C)NC(=O)[C@@H](NC(=O)[C@H](CO)NC(=O)[C@H](CC(C)C)NC(=O)[C@H](C)N)[C@@H](C)O)C(C)C)C(C)C)C(=O)N[C@@H](CCCNC(=N)N)C(=O)NCC(=O)N[C@H](C(=O)N[C@@H](Cc1ccccc1)C(=O)N[C@@H](CCCCN)C(=O)O)[C@@H](C)O [Peptide F196.09] | 160 |  | 7.6 |  |  |  | 214 |  |  | IC50 (DRB1*1101): 32 nM; IC50 (DRB5*0101): 38 nM
ACSWGMVMLMLVRFK [Peptide 89.0043] |  | 2900 |  | 679 | 5630 | > 20000 | 467 | 10500 |  | 
ACSWGMVVLLLVRYK [Peptide 89.0004] | 870 | 4770 |  |  | > 20000 |  | 1520 | 2000 | 701 | IC50 (DR1 (DRB1*0101)): 1020 nM
Ac-AAAKAAAAAAFAA [Peptide 730.09] |  |  |  |  |  |  |  |  | 421 | 
Ac-AAAKAAAAAAYAA [Peptide 702.08] |  |  |  |  |  |  |  |  | 348 | 
EIYIIEETTCTLVAG [Peptide 90.0251] |  |  | 1110 |  |  |  | 1100 |  |  | 
GHQVVPPMAVSKAKA [Peptide 90.0011] |  | 1630 | 2580 | 2060 | 5320 | 6240 | 66 |  | 451 | 
GKSYFGMSLIHFLKG [Peptide 89.0146] | > 20000 | > 20000 | > 20000 | > 20000 | > 20000 | > 20000 |  | > 20000 | 561 | IC50 (DR1 (DRB1*0101)): > 20000 nM

Compound | IC50 (DRB1*1501) [nM] | IC50 (DRB1*0802) [nM] | IC50 (DRB1*1302) [nM] | IC50 (DRB1*1101; Binding affinity DRB1 *1101) [nM] | IC50 (DRB5*0101; Binding affinity DRB5 *0101) [nM] | IC50 (DR7 (DRB1*0701)) [nM] | IC50 (DRB4*0101) [nM] | IC50 (DRB1*0901) [nM] | IC50 (DR4w4 (DRB1*0401)) [nM] | other results
KLFCADPAL [Peptide 1578.50] |  |  |  |  |  |  |  |  |  | IC50 (A*0202): 6.8 nM; IC50 (A*6802): > 20000 nM
LHLLSNDMCARAYSE [Peptide 68.0140] | > 20000 | > 20000 |  | > 20000 | > 20000 | > 20000 |  | > 20000 |  | 
LIRLENAILFTAREH [Peptide 90.0002] | 2070 | 11700 | 51 | 5690 | 4270 |  | 339 |  | 1220 | IC50 (DR1 (DRB1*0101)): 23 nM
LKTIIKPHCMYYHMQ [Peptide 89.0119] | 17400 | > 20000 | 104 | > 20000 |  | > 20000 | 1680 | > 20000 | 2000 | IC50 (DR1 (DRB1*0101)): > 20000 nM; IC50 (DRB5*0101): > 20000 nM
LLLPPLERLTL [Peptide 73.0157] |  |  |  |  |  |  |  |  |  | IC50 (A*6802): > 20000 nM
LQLPPLERLTV [Peptide 73.0158] |  |  |  |  |  |  |  |  |  | IC50 (A*6802): > 20000 nM
LVQLKCPPLLITSNI [Peptide 89.0021] |  | > 20000 |  | > 20000 | > 20000 |  | 234 | > 20000 | 4290 | IC50 (DR1 (DRB1*0101)): 72 nM
NKALQAIELQLTLET [Peptide 89.0151] | > 20000 |  | 1800 |  | 462 | 1200 | 32 | 16800 |  | IC50 (DR1 (DRB1*0101)): 80 nM
QYIKANSSFIGITE |  |  |  |  |  |  |  |  | 13 | 
RLTVSKLMSQLLNIP [Peptide 89.0100] | > 20000 | > 20000 | 7.3 | > 20000 | > 20000 | 4990 | 4820 | > 20000 |  | 
RTLHDLCQA [Peptide 1481.46] |  |  |  |  |  |  |  |  |  | IC50 (A*6802): > 20000 nM
SEVYDFAFADLTVVY [Peptide 85.0024] |  |  | > 20000 | > 20000 |  |  |  |  |  | 
SWGMVMLMLVRFKCA [Peptide 89.0044] |  | 9990 | 975 |  | 5060 | > 20000 | 1440 | > 20000 | 3380 | IC50 (DR1 (DRB1*0101)): 4890 nM
TLHDLCQAL [Peptide 1481.47] |  |  |  |  |  |  |  |  |  | IC50 (A*6802): > 20000 nM
TNCMLIQPPKLRSTA [Peptide 89.0046] | 5120 |  | 5100 | 1090 |  | 1120 | 479 | > 20000 |  | 
VTAKELKFV [Peptide 1418.24] |  |  |  |  |  |  |  |  |  | IC50 (A*6802): > 20000 nM
